Tests used:
Conditions in all cases: incubation time: 72 h
MCF-10A = test: drug sensitivity score (DSS), CellTiter-Glo (DSS (AUC-based score)); higher = stronger drug effect (viability inhibition or cytotoxicity); extreme values may be limits of the assay
Method in brief: (§1)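 After 72 h of incubation in 384-well plates with compound at 5 concentrations (10-fold steps, 10,000-fold range set per compound), breast cancer cell lines seeded in 20 µl suspension were read first for CellTox Green fluorescence at 485/520 nm. CellTiter-Glo luminescence was measured next, after 10 min at room temperature. Normalisation on each plate used 0.1 % DMSO and a positive kill control, and the drug sensitivity score was computed from the area under the fitted dose-response curve.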

CAL-120 = test: as above
Method in brief: as §1

CAL-148 [1] = test: as above
Method in brief: as §1

SK-BR-3 = test: as above
Method in brief: as §1

BT-474 = test: as above
Method in brief: as §1

MDA-MB-231 [2] = test: as above
Method in brief: as §1

MDA-MB-468 = test: as above
Method in brief: as §1

HDQ-P1 [3] = test: as above
Method in brief: as §1

MDA-MB-453 [4] = test: as above
Method in brief: as §1

BT-549 [5] = test: as above
Method in brief: as §1

Hs578T [6] = test: as above
Method in brief: as §1

DU-4475 [7] = test: as above
Method in brief: as §1

HCC1143 [8] = test: as above
Method in brief: as §1

CAL-148 [9] = test: normalised viability (% of control), CellTiter-Blue; higher = more viable cells (about 100 = DMSO control)
Method in brief: (§2)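 After 72 h on compound-loaded 384-well plates, breast cancer cell lines received 2.5 µl CellTiter-Blue reagent for 2 h at 37 °C. Fluorescence at 560/590 nm was scaled per plate so that vehicle was 100 and a positive kill control was 0. The value stands for normalised viability at a single listed concentration of the series.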

HCC1937 = test: as above
Method in brief: as §2

CAL-51 = test: as above
Method in brief: as §2

MDA-MB-231 [10] = test: as above
Method in brief: as §2

MFM-223 = test: as above
Method in brief: as §2

HDQ-P1 [11] = test: as above
Method in brief: as §2

MDA-MB-453 [12] = test: as above
Method in brief: as §2

BT-549 [13] = test: as above
Method in brief: as §2

Hs578T [14] = test: as above
Method in brief: as §2

DU-4475 [15] = test: as above
Method in brief: as §2

HCC1143 [16] = test: as above
Method in brief: as §2

C[C@@H](C(=O)O)c1ccc(-c2ccccc2)c(F)c1 [Tarenflurbil]
Conditions	drug sensitivity score
BT-474	0
BT-549 [5]	0
CAL-120	0
CAL-148 [1]	0
DU-4475 [7]	0
HCC1143 [8]	0
HDQ-P1 [3]	0
Hs578T [6]	0
MCF-10A	0
MDA-MB-231 [2]	0
MDA-MB-453 [4]	0
MDA-MB-468	0
SK-BR-3	0

normalised viability [%]
Conditions	3 nM	10 nM	30 nM	100 nM	1000 nM	10000 nM
BT-549 [13]	–	97.6	–	–	104	112
CAL-51	118	–	115	111	–	–
CAL-148 [9]	80	–	96.6	87.3	–	–
DU-4475 [15]	101	–	95.6	108	–	–
HCC1143 [16]	–	86.4	–	–	95.3	86.9
HCC1937	–	84.3	–	–	92.9	102
HDQ-P1 [11]	106	–	106	98.9	–	–
Hs578T [14]	–	97.7	–	–	106	92.6
MDA-MB-231 [10]	–	97.8	–	–	88.6	103
MDA-MB-453 [12]	106	–	89.2	85.6	–	–
MFM-223	–	93.6	–	–	97.2	93.2

Cn1nnc2c(C(N)=O)ncn2c1=O [Temozolomide]
Conditions	drug sensitivity score
BT-474	0
BT-549 [5]	0
CAL-120	0
CAL-148 [1]	0
DU-4475 [7]	0
HCC1143 [8]	0
HDQ-P1 [3]	0
Hs578T [6]	0
MCF-10A	0
MDA-MB-231 [2]	0
MDA-MB-453 [4]	0
MDA-MB-468	0
SK-BR-3	0

normalised viability [%]
Conditions	3 nM	10 nM	30 nM	100 nM	1000 nM	10000 nM
BT-549 [13]	–	105	–	–	91.6	74.7
CAL-51	91.1	–	96.3	91.4	–	–
CAL-148 [9]	94	–	88.8	93	–	–
DU-4475 [15]	108	–	95.3	113	–	–
HCC1143 [16]	–	90.5	–	–	95.9	102
HCC1937	–	88.3	–	–	105	116
HDQ-P1 [11]	95.6	–	88.5	27.3	–	–
Hs578T [14]	–	104	–	–	92.7	85.1
MDA-MB-231 [10]	–	101	–	–	88	91
MDA-MB-453 [12]	112	–	108	100	–	–
MFM-223	–	98.4	–	–	96.7	103

CC[C@@H]1C(=O)N(C)c2cnc(Nc3ccc(C(=O)N[C@H]4CC[C@H](N5CCN(CC6CC6)CC5)CC4)cc3OC)nc2N1C(C)C [Volasertib]
Conditions	drug sensitivity score
BT-474	8.07
BT-549 [5]	15.1
CAL-120	7.64
CAL-148 [1]	4.27
DU-4475 [7]	8.16
HCC1143 [8]	11.2
HDQ-P1 [3]	5.3
Hs578T [6]	9.68
MCF-10A	8.92
MDA-MB-231 [2]	9.58
MDA-MB-453 [4]	12
MDA-MB-468	14.8
SK-BR-3	19.9

normalised viability [%]
Conditions	0.3 nM	1 nM	3 nM	10 nM	100 nM	1000 nM
BT-549 [13]	–	94.9	–	–	36.9	41.6
CAL-51	116	–	99.8	100	–	–
CAL-148 [9]	98.2	–	94.8	72	–	–
DU-4475 [15]	98.4	–	88.2	86.1	–	–
HCC1143 [16]	–	86.3	–	–	41.2	41.2
HCC1937	–	131	–	–	30.8	34.9
HDQ-P1 [11]	108	–	84	76.4	–	–
Hs578T [14]	–	111	–	–	40.3	35.1
MDA-MB-231 [10]	–	114	–	–	36.3	45.9
MDA-MB-453 [12]	117	–	89.9	46.2	–	–
MFM-223	–	88.8	–	–	48.9	56.2
